Laboratory results: patent US20120010075A1 (priority 2009, published 2012)
Where two headings read alike, the source gives them in different places.

Assays:
Phytophthora infestans = type: in vivo, Phytophthora infestans on tomato; conditions: hydrazone 50 ppm + 50 μM CuCl2.2H2O, applied 24 h before inoculation, assessed 7 days after inoculation, tomato
[1] = system: Leptosphaeria nodorum (LEPTNO); assay: In vitro fungitoxicity of hydrazones with and without copper towards Leptosphaeria nodorum (Example 26); type: cell-based; conditions: for inhibition of growth at 0.05 µg/mL: Parastagonospora nodorum, 72 h, read-out: LEPTNO % Inhn. Minus Copper Observed; for LEPTNO % Inhn. Plus Copper Observed: copper-plus medium (CuCl2.2H2O)
[2] = compound 0.05 μg/mL, copper-minus medium, 72 h at 25° C.
[3] = compound 0.05 μg/mL, 72 h at 25° C.

Row | SMILES | TLB % Control (Phytophthora infestans) [%] | inhibition of growth at 0.05 µg/mL [1, 2] [%] | LEPTNO % Inhn. Plus Copper Observed [1, 3] [%] | inhibition of growth at 0.05 µg/mL [1] [%] | LEPTNO % Inhn. Minus Copper Observed [1, 2] [%]
1 | O=C(N/N=C/c1cc(Br)cc(Br)c1O)c1cccc(Br)c1 [Example 113] | 94.7 | 17 | 98.0 | – | –
2 | O=C(N/N=C/c1cc(Br)cc(Br)c1O)c1ccccc1F [Example 116] | 88.8 | 8.4 | 98.2 | – | –
3 | C/C(=N\NC(=O)c1ccc(F)cc1)c1cc(Cl)cc(Cl)c1O [Example 59] | 79.7 | 12.8 | 97.5 | – | –
4 | O=C(N/N=C/c1cc(Cl)ccc1O)c1ccc(Br)cc1 [Example 191] | 29.8 | 15.4 | 98.1 | – | –
5 | O=C(N/N=C/c1cc(Cl)ccc1O)c1cccc(Cl)c1 [Example 178] | 59.3 | 8.5 | 98.3 | – | –
6 | COc1cc(Br)cc(/C=N/NC(=O)c2cccc(Cl)c2)c1O [Example 203] | 56.4 | 6.9 | 95.7 | – | –
7 | Cc1cccc(C(=O)N/N=C/c2cc(Br)cc(Br)c2O)c1 [Example 115] | 78.2 | 6.1 | 97.4 | – | –
8 | O=C(N/N=C/c1cc(Br)ccc1O)c1ccc(Cl)cc1 [Example 171] | 15.8 | 4 | 98.3 | – | –
9 | O=C(N/N=C/c1cc([N+](=O)[O-])ccc1O)c1ccc(Cl)cc1 [Example 197] | 43.7 | 0 | 97.1 | – | –
10 | O=C(N/N=C/c1cccc([N+](=O)[O-])c1O)c1ccccc1 [Example 145] | 55.9 | 2.4 | 97.2 | – | –
11 | Cc1ccccc1C(=O)N/N=C/c1cc(Cl)ccc1O [Example 157] | 61.8 | 7.8 | 96.9 | – | –
12 | C/C(=N\NC(=O)c1cccc(F)c1)c1ccccc1O [Example 25] | 35.1 | 0 | 97.3 | – | –
13 | O=C(N/N=C/c1cc(Cl)cc(Br)c1O)c1cccc(Cl)c1 [Example 192] | 84.2 | 7.8 | 94.7 | – | –
14 | COc1cc(Br)cc(/C=N/NC(=O)c2ccc(C)cc2)c1O [Example 206] | 80.7 | 16.4 | 98.4 | – | –
15 | O=C(N/N=C/c1cc(Cl)cc(Br)c1O)c1cccc(Br)c1 [Example 163] | 87.7 | 5.9 | 98.0 | – | –
16 | C/C(=N\NC(=O)c1cccc(Cl)c1)c1ccccc1O [Example 65] | 10.0 | 0 | 98.3 | – | –
17 | O=C(Cc1ccc(F)cc1)N/N=C/c1cc(Cl)cc(Cl)c1O [Example 126] | 73.0 | 13.2 | 92.4 | – | –
18 | C/C(=N\NC(=O)Cc1ccccc1)c1ccccc1O [Example 128] | 38.0 | 10.8 | 88.6 | – | –
19 | C/C(=N\NC(=O)c1ccc(Cl)cc1)c1cc(Br)ccc1O [Example 293] | 19.0 | 7.9 | 95.7 | – | –
20 | Cc1cccc(C(=O)N/N=C/c2cc(Cl)cc(Br)c2O)c1 [Example 194] | 80.4 | – | 96.9 | 16.1 | –
21 | C/C(=N\NC(=O)c1cccc(I)c1)c1ccccc1O [Example 13] | 33.3 | – | 96.2 | – | 0.0
22 | C/C(=N\NC(=O)c1ccccc1O)c1ccccc1O [Example 213] | 56.1 | 3.7 | 98.8 | – | –

Row | SMILES | TLB % Control (Phytophthora infestans) [%] | inhibition of growth at 0.05 µg/mL [1, 2] [%] | LEPTNO % Inhn. Plus Copper Observed [1, 3] [%] | inhibition of growth at 0.05 µg/mL [1] [%] | LEPTNO % Inhn. Minus Copper Observed [1, 2] [%]
23 | O=C(N/N=C/c1cc(Cl)ccc1O)c1ccccc1Br [Example 190] | 70.9 | 5.6 | 95.7 | – | –
24 | COc1ccc(O)c(/C=N/NC(=O)c2ccccc2)c1 [Example 154] | 36.6 | 3.4 | 70.7 | – | –
25 | CN(C)c1ccc(C(=O)N/N=C/c2cc(Cl)cc(Cl)c2O)cc1 [Example 103] | 63.2 | 17.9 | 98.1 | – | –
26 | O=C(N/N=C/c1cc(Cl)cc(Cl)c1O)c1ccc(Cl)cc1Cl [Example 78] | 70.9 | 7.9 | 96.3 | – | –
27 | COc1ccccc1C(=O)N/N=C/c1cc(Br)cc(Br)c1O [Example 114] | 7.5 | 0 | 36.9 | – | –
28 | O=C(N/N=C/c1cc(Br)ccc1O)c1ccccc1 [Example 148] | 72.9 | 15.4 | 97.9 | – | –
29 | C/C(=N\NC(=O)c1ccc(C(F)(F)F)cc1)c1ccccc1O [Example 11] | 42.1 | 0.3 | 97.2 | – | –
30 | COc1ccccc1C(=O)N/N=C/c1cc(Cl)cc(Cl)c1O [Example 94] | 37.0 | 0 | 92.9 | – | –
31 | C/C(=N\NC(=O)c1ccc(F)cc1)c1ccccc1O [Example 62] | 56.1 | 0 | 96.3 | – | –
32 | O=C(N/N=C/c1cc(Cl)cc(Br)c1O)c1ccccc1F [Example 169] | 78.9 | 2.7 | 98.1 | – | –
33 | O=C(N/N=C/c1cc(Cl)cc([N+](=O)[O-])c1O)c1ccc(Cl)cc1 [Example 199] | 56.1 | 4 | 98.0 | – | –
34 | C/C(=N\NC(=O)c1ccc(C)cc1C)c1ccccc1O [Example 29] | 50.8 | 0 | 98.0 | – | –
35 | COc1cc(OC)cc(C(=O)N/N=C/c2cc(Cl)cc(Cl)c2O)c1 [Example 88] | 4.8 | 10.7 | 96.7 | – | –
36 | O=C(N/N=C/c1cc(Cl)ccc1O)c1ccc(C(F)(F)F)cc1 [Example 187] | 92.7 | – | 97.5 | 20.7 | –
37 | C/C(=N\NC(=O)c1ccc(C)cc1)c1ccccc1O [Example 36] | 33.9 | 5.9 | 98.4 | – | –
38 | O=C(N/N=C/c1ccccc1O)c1ccc(Cl)cc1 [Example 2] | 61.4 | 0 | 95.1 | – | –
39 | O=C(N/N=C/c1cc(Br)ccc1O)c1ccccc1Br [Example 160] | 65.5 | 3.4 | 96.1 | – | –
40 | O=C(N/N=C/c1cc(Br)cc(Br)c1O)c1ccc(OC(F)(F)F)cc1 [Example 109] | 89.1 | 27.8 | 98.3 | – | –
41 | Cc1ccc([N+](=O)[O-])c(C(=O)N/N=C/c2cc(Cl)cc(Cl)c2O)c1 [Example 9] | 67.3 | 0 | 93.6 | – | –
42 | Cc1ccc(C(=O)N/N=C/c2cc(Cl)ccc2O)cc1 [Example 180] | 43.9 | 10.8 | 95.1 | – | –
43 | O=C(N/N=C/c1cc(Br)cc(Br)c1O)c1ccc(Br)cc1 [Example 118] | 85.3 | 10.6 | 98.3 | – | –
